Source: ChEMBL document CHEMBL1154879, “Discovery of (thienopyrimidin-2-yl)aminopyrimidines as potent, selective, and orally available pan-PI3-kinase and dual pan-PI3-kinase/mTOR inhibitors for the treatment of cancer” (J Med Chem, 2010)
Calls of active or inactive are those of the source. The calls are words filed in the database; no cut-off is given here.

Assays:
Mus musculus [1] = test: Inhibition of PI3K/Akt/mTOR pathway signaling in PI3Kalpha mutant expressing human MCF7.1 cells xenografted nu/nu mouse assessed as inhibition of S6RP Ser235/236 phosphorylation at 6.25 mg/kg, po qd for 21 days measured 4 hrs after last administered dose on day 21 by electrochemiluminescence assay; type: functional
Mus musculus [2] = test: Inhibition of PI3K/Akt/mTOR pathway signaling in PI3Kalpha mutant expressing human MCF7.1 cells xenografted nu/nu mouse assessed as inhibition of Akt Ser473 phosphorylation at 6.25 mg/kg, po qd for 21 days measured 4 hrs after last administered dose on day 21 by electrochemiluminescence assay; type: functional
Mus musculus [3] = test: Inhibition of PI3K/Akt/mTOR pathway signaling in PI3Kalpha mutant expressing human MCF7.1 cells xenografted nu/nu mouse assessed as inhibition of Pras40 Thr246 phosphorylation at 12.5 mg/kg, po qd for 21 days measured 1 hr after last administered dose on day 21 by ELISA; type: functional
Mus musculus [4] = test: Inhibition of PI3K/Akt/mTOR pathway signaling in PI3Kalpha mutant expressing human MCF7.1 cells xenografted nu/nu mouse assessed as inhibition of S6RP Ser235/236 phosphorylation at 12.5 mg/kg, po qd for 21 days measured 4 hrs after last administered dose on day 21 by electrochemiluminescence assay; type: functional
[5] = Antiproliferative activity against human MCF7.1 cells expressing PI3Kalpha mutant after 3 to 4 days; type: functional, cell-based
MCF7.1 = test: Antitumor activity against human MCF7.1 cells expressing PI3Kalpha mutant xenografted in nu/nu mouse assessed as inhibition of tumor growth at 25 mg/kg, po qd for 21 days; type: functional, organism-based; design: dose 25 mg/kg
[6] = Clearance in nu/nu mouse at 1 mg/kg, iv; type: ADME, organism-based; design: dose 1 mg/kg, route intravenous; conditions: in vivo
[7] = target: Phosphatidylinositol 4-phosphate 3-kinase C2 domain-containing subunit alpha (Homo sapiens) (UniProt O00443); test: Inhibition of PIK3C2alpha at 1 uM
Sequence of Phosphatidylinositol 4-phosphate 3-kinase C2 domain-containing subunit alpha (Homo sapiens) (O00443 whole entry, the tested form may be a part): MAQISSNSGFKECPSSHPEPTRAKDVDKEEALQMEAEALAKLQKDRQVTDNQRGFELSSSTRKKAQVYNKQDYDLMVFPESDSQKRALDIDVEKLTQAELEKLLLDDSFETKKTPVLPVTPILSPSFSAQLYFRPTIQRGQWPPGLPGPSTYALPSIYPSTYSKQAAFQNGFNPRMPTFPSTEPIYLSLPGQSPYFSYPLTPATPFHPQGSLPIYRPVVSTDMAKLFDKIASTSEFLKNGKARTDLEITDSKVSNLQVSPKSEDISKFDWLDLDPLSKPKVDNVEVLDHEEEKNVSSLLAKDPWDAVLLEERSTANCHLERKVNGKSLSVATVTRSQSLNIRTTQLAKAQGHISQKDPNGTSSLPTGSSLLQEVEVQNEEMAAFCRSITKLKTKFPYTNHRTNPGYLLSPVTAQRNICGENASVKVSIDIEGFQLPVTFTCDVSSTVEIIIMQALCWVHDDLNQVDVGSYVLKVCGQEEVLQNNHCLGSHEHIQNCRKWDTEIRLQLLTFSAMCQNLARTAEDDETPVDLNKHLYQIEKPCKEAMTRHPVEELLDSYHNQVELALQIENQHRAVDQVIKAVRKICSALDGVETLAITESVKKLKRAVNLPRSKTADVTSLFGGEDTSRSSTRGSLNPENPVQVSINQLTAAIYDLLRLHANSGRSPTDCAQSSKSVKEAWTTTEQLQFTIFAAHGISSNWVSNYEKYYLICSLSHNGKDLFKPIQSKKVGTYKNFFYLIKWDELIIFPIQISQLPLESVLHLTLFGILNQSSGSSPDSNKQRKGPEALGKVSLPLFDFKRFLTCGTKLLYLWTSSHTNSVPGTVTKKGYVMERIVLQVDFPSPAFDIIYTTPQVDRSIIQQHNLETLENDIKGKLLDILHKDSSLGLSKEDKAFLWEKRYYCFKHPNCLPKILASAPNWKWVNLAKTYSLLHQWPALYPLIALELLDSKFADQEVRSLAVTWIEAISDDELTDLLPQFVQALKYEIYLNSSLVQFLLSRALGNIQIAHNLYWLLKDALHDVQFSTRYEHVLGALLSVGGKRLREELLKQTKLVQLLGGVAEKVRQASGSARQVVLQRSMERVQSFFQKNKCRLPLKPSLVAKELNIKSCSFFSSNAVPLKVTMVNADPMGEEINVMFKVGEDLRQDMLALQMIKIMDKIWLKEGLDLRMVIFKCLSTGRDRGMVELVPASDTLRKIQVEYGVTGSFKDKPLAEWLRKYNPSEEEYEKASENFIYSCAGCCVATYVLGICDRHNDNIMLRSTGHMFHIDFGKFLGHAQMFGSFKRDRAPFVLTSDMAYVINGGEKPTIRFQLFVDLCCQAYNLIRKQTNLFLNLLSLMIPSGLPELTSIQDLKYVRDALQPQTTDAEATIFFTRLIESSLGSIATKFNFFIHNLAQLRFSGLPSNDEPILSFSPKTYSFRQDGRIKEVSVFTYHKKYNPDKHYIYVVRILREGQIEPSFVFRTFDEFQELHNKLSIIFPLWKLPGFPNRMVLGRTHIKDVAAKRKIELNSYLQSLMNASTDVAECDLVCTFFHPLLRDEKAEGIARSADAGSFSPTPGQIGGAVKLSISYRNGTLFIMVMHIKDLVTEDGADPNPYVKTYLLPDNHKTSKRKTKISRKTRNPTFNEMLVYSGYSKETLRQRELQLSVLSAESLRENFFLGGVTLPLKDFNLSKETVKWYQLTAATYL

Mus musculus [8] = test: Inhibition of PI3K/Akt/mTOR pathway signaling in PI3Kalpha mutant expressing human MCF7.1 cells xenografted nu/nu mouse assessed as inhibition of Pras40 Thr246 phosphorylation at 25 mg/kg, po qd for 21 days measured 4 hrs after last administered dose on day 21 by ELISA; type: functional
Mus musculus [9] = test: Toxicity in human MCF7.1 cells expressing PI3Kalpha mutant xenografted nu/nu mouse assessed as body weight loss at 6.25 mg/kg, po qd for 21 days; type: organism-based; design: dose 6.25 mg/kg, route oral; conditions: in vivo, 504 h
Mus musculus [10] = test: Inhibition of PI3K/Akt/mTOR pathway signaling in PI3Kalpha mutant expressing human MCF7.1 cells xenografted nu/nu mouse assessed as inhibition of Akt Ser473 phosphorylation at 12.5 mg/kg, po qd for 21 days measured 1 hr after last administered dose on day 21 by electrochemiluminescence assay; type: functional
Mus musculus [11] = test: Inhibition of PI3K/Akt/mTOR pathway signaling in PI3Kalpha mutant expressing human MCF7.1 cells xenografted nu/nu mouse assessed as inhibition of S6RP Ser235/236 phosphorylation at 25 mg/kg, po qd for 21 days measured 1 hr after last administered dose on day 21 by electrochemiluminescence assay; type: functional
Mus musculus [12] = test: Inhibition of PI3K/Akt/mTOR pathway signaling in PI3Kalpha mutant expressing human MCF7.1 cells xenografted nu/nu mouse assessed as inhibition of Akt Ser473 phosphorylation at 25 mg/kg, po qd for 21 days measured 1 hr after last administered dose on day 21 by electrochemiluminescence assay; type: functional
[13] = target: T1, Phosphatidylinositol 4,5-bisphosphate 3-kinase catalytic subunit delta isoform (Homo sapiens, UniProt O00329)
T1 sequence (O00329 whole entry): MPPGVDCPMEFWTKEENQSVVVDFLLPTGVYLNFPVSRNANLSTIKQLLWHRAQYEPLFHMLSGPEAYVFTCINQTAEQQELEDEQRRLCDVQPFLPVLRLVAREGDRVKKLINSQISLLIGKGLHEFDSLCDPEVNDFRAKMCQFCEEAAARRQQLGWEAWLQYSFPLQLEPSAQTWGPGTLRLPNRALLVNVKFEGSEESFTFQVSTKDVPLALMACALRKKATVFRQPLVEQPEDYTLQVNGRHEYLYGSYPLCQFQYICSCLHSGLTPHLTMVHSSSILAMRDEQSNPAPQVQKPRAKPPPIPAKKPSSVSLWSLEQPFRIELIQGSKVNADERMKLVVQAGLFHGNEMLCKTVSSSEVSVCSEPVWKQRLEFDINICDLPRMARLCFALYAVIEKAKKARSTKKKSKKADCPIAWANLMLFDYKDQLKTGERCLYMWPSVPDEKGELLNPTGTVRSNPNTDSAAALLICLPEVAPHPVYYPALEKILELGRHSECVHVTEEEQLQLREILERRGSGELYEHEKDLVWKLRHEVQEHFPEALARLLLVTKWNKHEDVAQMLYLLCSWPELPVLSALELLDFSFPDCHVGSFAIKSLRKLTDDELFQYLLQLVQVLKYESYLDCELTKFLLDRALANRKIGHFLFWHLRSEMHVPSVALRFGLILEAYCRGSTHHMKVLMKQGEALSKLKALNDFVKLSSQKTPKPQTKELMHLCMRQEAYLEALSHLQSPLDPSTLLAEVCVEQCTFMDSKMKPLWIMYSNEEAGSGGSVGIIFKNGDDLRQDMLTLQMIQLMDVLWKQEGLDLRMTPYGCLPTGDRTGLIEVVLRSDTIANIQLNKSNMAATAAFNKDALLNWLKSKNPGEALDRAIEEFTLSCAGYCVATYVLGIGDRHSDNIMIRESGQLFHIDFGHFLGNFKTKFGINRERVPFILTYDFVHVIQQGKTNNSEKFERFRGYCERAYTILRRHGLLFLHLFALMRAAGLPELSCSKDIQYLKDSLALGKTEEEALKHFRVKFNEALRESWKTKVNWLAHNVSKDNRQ

Mus musculus [14] = test: Inhibition of PI3K/Akt/mTOR pathway signaling in PI3Kalpha mutant expressing human MCF7.1 cells xenografted nu/nu mouse assessed as inhibition of S6RP Ser235/236 phosphorylation at 12.5 mg/kg, po qd for 21 days measured 1 hr after last administered dose on day 21 by electrochemiluminescence assay; type: functional

For `Cc1nc(N)ncc1-c1nc(N2CCOCC2)c2sc(C(C)(C)O)cc2n1`, which inhibition in vivo at 6.25 mg/kg (Mus musculus [1]) is on record?
The inhibition in vivo at 6.25 mg/kg was 51%.

What about the inhibition in vivo at 6.25 mg/kg (Mus musculus [2]) of the same compound?
The inhibition in vivo at 6.25 mg/kg was 43%.

What about the inhibition in vivo at 12.5 mg/kg (Mus musculus [3]) of the same compound?
The inhibition in vivo at 12.5 mg/kg was 100%.

And the inhibition in vivo at 12.5 mg/kg (Mus musculus [4])?
Its inhibition in vivo at 12.5 mg/kg is 50%.

What about the IC50 [5] of the same compound?
The IC50 was 0.28 µM.

And the Activity (MCF7.1)?
The Activity was “Active”.

And the clearance [6]?
The clearance was 51 mL/min/kg.

And the inhibition [7]?
The inhibition was “inactive”.

And the inhibition in vivo at 25 mg/kg (Mus musculus [8])?
The inhibition in vivo at 25 mg/kg was 95%.

What about the Activity (Mus musculus [9]) of the same compound?
The Activity was “Non-toxic”.

And the inhibition in vivo at 12.5 mg/kg (Mus musculus [10])?
The inhibition in vivo at 12.5 mg/kg was 83%.

And the inhibition in vivo at 25 mg/kg (Mus musculus [11])?
The inhibition in vivo at 25 mg/kg was 74%.

And the inhibition in vivo at 25 mg/kg (Mus musculus [12])?
Its inhibition in vivo at 25 mg/kg is 82%.

And the IC50 [13]?
Its IC50 is 0.0052 µM.

What about the inhibition in vivo at 12.5 mg/kg (Mus musculus [14]) of the same compound?
The inhibition in vivo at 12.5 mg/kg was 77%.
